Assay results from PubChem BioAssay AID1963450 (Molecular Pharmacology Branch, DTP, NCI, 2024).

System: 556581-035-R-J1-PDC complex spheroid growth
Experiment: Anticancer human tumor 556581-035-R-J1-PDC patient-derived ovarian carcinoma cell line growth inhibition [Asc]
Settings: for IC50: curve of first compound; for viability, T/C: stronger effect = lower value; active = viability on the fitted dose curve at most 10% of control; inactive = the rest
Protocol: Multicellular complex tumor spheroid response to apoptosis pathway targeting inhibitors Alrizomadlin, Pelcitoclax, and Dasminapant in combination with a variety of drugs and investigational agents in selected tumor cell lines
The MDM2 inhibitor alrizomadlin, the Bcl-2/Bcl-xL inhibitor pelcitoclax, and the IAPs inhibitor dasminapant were evaluated both individually and in combination with standard of care and investigational anticancer small molecules within a complex spheroid model of solid tumors. . Complex spheroids include a stromal component modeled by human endothelial cells (HUVEC) and fibroblasts modeled by human mesenchymal stem cells (MSCs). The concentration ranges selected for each drug and investigational agent were based upon clinically achievable concentrations if the clinical Cmax of the agent was known.
Compounds. The drugs and investigational agents: alrizomadlin (APG-115; NSC831270), pelcitoclax (APG-1252; NSC835773), dasminapant (APG-1387;NSC834197), TAK-243 (NSC785004), copanlisib (NSC809693), olaparib (NSC753686), talazoparib (NSC767125), cobimetinib (NSC 768068), eltanexor (KPT-8602, NSC 794443), abemaciclib (NSC 768073), sotorasib (NSC818433), adagrasib (NSC 831453), MRTX-1133 (NSC 836407), Iadademestat (ORY1001, NSC 806812), and RMC-4630 (NSC839698), were obtained from the NCI Developmental Therapeutics Program Chemical Repository. The FDA-approved anticancer drug set is available from the Developmental Therapeutics Program at https://dtp.cancer.gov/organization/dscb/obtaining/available plates.htm. […] The stock solutions were prepared in dimethyl sulfoxide (DMSO, Sigma-Aldrich, St. Louis, MO, cat. D2650) at 800-fold the tested concentration and stored at -70 degrees C prior to their use. All drugs and investigational agents were tested over a range starting from a high concentration at or near the clinical Cmax and decreasing in half-log increments. If the clinical Cmax for an agent had not been determined, the highest concentration tested was 10 microM.
The patient-derived cancer (PDC) cell lines include five colon adenocarcinomas: 186277-243-T-J2-PDC, 616215-338-R-J1-PDC, 439559-082-T-J2-PDC, 463943-066-T-J2-PDC, and 519858-162-T-J1-PDC; three pancreatic carcinomas: 323965-272-R-J2-PDC, 521955-158-R6-J3-PDC, and 521955-158-R2-J5-PDC; two uterine sarcomas: 327498-152-R-J2-PDC and 993429-296-R-J1-PDC; two rhabdomyosarcomas: 755483-174-R-J1-PDC and 772245-204-R-J1-PDC; two soft tissue sarcomas: 126254-015-R-J1-PDC and 494315-158-R-J1-PDC; two malignant fibrous histiocytomas: 317291-083-R-J1-PDC and 596521-263-R-J1-PDC; two breast carcinomas: 171881-019-R-J1-PDC and 885512-296-R-J2-PDC; and one ovarian carcinoma: 6556581-035-R-J-PDC were obtained from the NCI PDMR, (https://pdmr.cancer.gov). The established cell lines HSSY-2 synovial sarcoma (RRID:CVCL 8719), SYO-1 synovial sarcoma (RRID:CVCL_7146), MPNST malignant peripheral neural sheath tumor were obtained from the Sloan Kettering Institute. The following established cell lines were purchased from the American Type Culture Collection (ATCC, Manassas, VA), Sor the received from the NCI repository:, PANC-1 pancreatic carcinoma (CRL-1469, RRID:CVCL_0480), OVCAR-5 ovarian carcinoma (RRID:CVCL_1628), OVCAR-8 ovarian carcinoma (RRID:CVCL_1629), , MCF-7 breast carcinoma (CRL-12584, RRID:CVCL_0031), MDA-MB-231 breast carcinoma (CRL-12532, RRID:CVCL_0062), NCI-H1876 small cell lung carcinoma (CRL-5902, RRID:CVCL_1503), NCI-H510A small cell lung carcinoma (HTB-184, RRID:CVCL_1565), NCI-H1417 (CRL-5869, RRID:CVCL_1469), and NCI-H196 small cell lung carcinoma (CRL-5823, RRID:CVCL_1509). Dr. Peter Houghton (Greehey Children's Cancer Research Institute, University of Texas Health Science Center, San Antonio, TX) provided Rh-18 rhabdomyosarcoma (RRID:CVCL_1659). Pooled donor human umbilical vein endothelial cells (HUVEC, Lonza, cat. CC-2519) and human mesenchymal stem cells (hMSC, Lonza, cat. PT-2501) were purchased from Lonza (Walkersville, MD).
Cell Culture. […]
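Also: spheroids exposed to agents for 7 days before viability read.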

CCN1CCN(Cc2ccc(Nc3ncc(F)c(-c4cc(F)c5nc(C)n(C(C)C)c5c4)n3)nc2)CC1 + CCN1C(C(=O)NC23CCC(C(=O)O)(CC2)CC3)C(c2cccc(Cl)c2F)C2(C(=O)Nc3cc(Cl)ccc32)C12CCCCC2
inactive: viability, T/C (second compound 0.03 µM, first compound 0.00316 µM) 91.6% | viability, T/C (second compound 0.03 µM, first compound 0.01 µM) 84.4% | viability, T/C (second compound 0.03 µM, first compound 0.0316 µM) 94% | viability, T/C (second compound 0.03 µM, first compound 0.1 µM) 81.8% | viability, T/C (second compound 0.03 µM, first compound 0.316 µM) 102% | viability, T/C (second compound 0.03 µM, first compound 1 µM) 88% | viability, T/C (second compound 0.0949 µM, first compound 0.00316 µM) 107% | viability, T/C (second compound 0.0949 µM, first compound 0.01 µM) 98% | viability, T/C (second compound 0.0949 µM, first compound 0.0316 µM) 95.2% | viability, T/C (second compound 0.0949 µM, first compound 0.1 µM) 106% | viability, T/C (second compound 0.0949 µM, first compound 0.316 µM) 98.2% | viability, T/C (second compound 0.0949 µM, first compound 1 µM) 87.2% | viability, T/C (second compound 0.3 µM, first compound 0.00316 µM) 102% | viability, T/C (second compound 0.3 µM, first compound 0.01 µM) 82.5% | viability, T/C (second compound 0.3 µM, first compound 0.0316 µM) 96.8% | viability, T/C (second compound 0.3 µM, first compound 0.1 µM) 99.7% | viability, T/C (second compound 0.3 µM, first compound 0.316 µM) 92.3% | viability, T/C (second compound 0.3 µM, first compound 1 µM) 88.4% | viability, T/C (second compound 0.949 µM, first compound 0.00316 µM) 84.9% | viability, T/C (second compound 0.949 µM, first compound 0.01 µM) 88.5% | viability, T/C (second compound 0.949 µM, first compound 0.0316 µM) 92.9% | viability, T/C (second compound 0.949 µM, first compound 0.1 µM) 92.9% | viability, T/C (second compound 0.949 µM, first compound 0.316 µM) 81.1% | viability, T/C (second compound 0.949 µM, first compound 1 µM) 91.6% | viability, T/C (second compound 3 µM, first compound 0.00316 µM) 81.7% | viability, T/C (second compound 3 µM, first compound 0.01 µM) 83.3% | viability, T/C (second compound 3 µM, first compound 0.0316 µM) 82.6% | viability, T/C (second compound 3 µM, first compound 0.1 µM) 83.5% | viability, T/C (second compound 3 µM, first compound 0.316 µM) 87.2% | viability, T/C (second compound 3 µM, first compound 1 µM) 86.2%
> 1000 nM: IC50 (second compound 0.03 µM) | IC50 (second compound 0.0949 µM) | IC50 (second compound 0.3 µM) | IC50 (second compound 0.949 µM) | IC50 (second compound 3 µM)
